Assay results from ChEMBL document CHEMBL1275533, “In vitro antibacterial activity of vertilmicin and its susceptibility to modifications by the recombinant AAC6'-APH2'' enzyme” (2008).
Converted amounts (≈) assume the structure as drawn. The source made the active and inactive calls. The calls are words filed in the database; no cut-off is given here.

Experiments:
Pseudomonas sp. [1] = assay: Antibacterial activity against gentamicin-resistant Pseudomonas spp. clinical isolate assessed as susceptible isolates after 18 hrs by agar dilution method; format: functional
Morganella morganii = assay: Antibacterial activity against non-gentamicin-resistant Morganella morganii clinical isolate assessed as susceptible isolates after 18 hrs by agar dilution method; format: functional
[2] = tested on: Acinetobacter calcoaceticus; assay: Antibacterial activity against non-gentamicin-resistant Acinetobacter calcoaceticus clinical isolate after 18 hrs by agar dilution method; format: functional
Haemophilus influenzae = assay: Antibacterial activity against non-gentamicin-resistant Haemophilus influenzae clinical isolate after 18 hrs by agar dilution method; format: functional
[3] = tested on: Escherichia coli BL21(DE3); assay: Ratio of Vmax to Km for AAC(6')-APH(2'') in Escherichia coli BL21(DE3) assessed as production of free pyridine-4-thiolate relative to netilmicin
Citrobacter freundii [4] = assay: Antibacterial activity against non-gentamicin-resistant Citrobacter freundii clinical isolate assessed as susceptible isolates after 18 hrs by agar dilution method; format: functional
[5] = tested on: Staphylococcus epidermidis; assay: Bactericidal activity against Staphylococcus epidermidis isolate 01-55 at >=1 MIC up to 8 hrs by time-kill study; format: functional, organism-based
[6] = tested on: Escherichia coli BL21(DE3); assay: Ratio of Vmax to Km for AAC(6')-APH(2'') in Escherichia coli BL21(DE3) assessed as oxidation of NADH by pyruvate kinase relative to netilmicin
Klebsiella pneumoniae [7] = assay: Antibacterial activity against Klebsiella pneumoniae isolate 01-21 at 1 MIC up to 8 hrs by time-kill study; format: functional, organism-based
Citrobacter freundii [8] = assay: Antibacterial activity against gentamicin-resistant Citrobacter freundii clinical isolate assessed as susceptible isolates after 18 hrs by agar dilution method; format: functional
Serratia marcescens [9] = assay: Antibacterial activity against gentamicin-resistant Serratia marcescens clinical isolate after 18 hrs by agar dilution method; format: functional
Escherichia coli [10] = assay: microbe, parasite or virus in culture; conditions: ATCC 25922, 18 h
Description: Antibacterial activity against Escherichia coli ATCC 25922 after 18 hrs by agar dilution method

Pseudomonas sp. [11] = assay: Antibacterial activity against non-gentamicin-resistant Pseudomonas spp. clinical isolate assessed as susceptible isolates after 18 hrs by agar dilution method; format: functional
Citrobacter koseri = assay: Antibacterial activity against non-gentamicin-resistant Citrobacter diversus clinical isolate after 18 hrs by agar dilution method; format: functional
[12] = tested on: Staphylococcus epidermidis; assay: Antibacterial activity against Staphylococcus epidermidis isolate 01-55 after 18 hrs by agar dilution method; format: functional
Enterobacter cloacae = assay: Antibacterial activity against gentamicin-resistant Enterobacter cloacae clinical isolate assessed as susceptible isolates after 18 hrs by agar dilution method; format: functional
[13] = tested on: Staphylococcus epidermidis; assay: Antibacterial activity against gentamicin-resistant Staphylococcus epidermidis clinical isolate after 18 hrs by agar dilution method; format: functional
Klebsiella pneumoniae [14] = assay: Antibacterial activity against Klebsiella pneumoniae isolate 01-21 after 18 hrs by agar dilution method; format: functional
Citrobacter freundii [15] = assay: Antibacterial activity against gentamicin-resistant Citrobacter freundii clinical isolate after 18 hrs by agar dilution method; format: functional
[16] = tested on: Escherichia coli BL21(DE3); assay: Acetylation activity of AAC(6')-APH(2'') in Escherichia coli BL21(DE3) assessed as production of free pyridine-4-thiolate relative to netilmicin
Staphylococcus aureus [17] = assay: Antibacterial activity against Staphylococcus aureus ATCC 29213 after 18 hrs by agar dilution method; format: functional
[18] = tested on: Escherichia coli BL21(DE3); assay: Phosphorylation activity of AAC(6')-APH(2'') in Escherichia coli BL21(DE3) assessed as oxidation of NADH by pyruvate kinase relative to verdamicin
Serratia marcescens [19] = assay: Antibacterial activity against non-gentamicin-resistant Serratia marcescens clinical isolate after 18 hrs by agar dilution method; format: functional
Escherichia coli [20] = assay: Antibacterial activity against non-gentamicin-resistant Escherichia coli clinical isolate after 18 hrs by agar dilution method; format: functional
Escherichia coli [21] = assay: Antibacterial activity against gentamicin-resistant Escherichia coli clinical isolate assessed as susceptible isolates after 18 hrs by agar dilution method; format: functional
Proteus mirabilis [22] = assay: Antibacterial activity against gentamicin-resistant Proteus mirabilis clinical isolate after 18 hrs by agar dilution method; format: functional
[23] = tested on: Escherichia coli BL21(DE3); assay: Phosphorylation activity of AAC(6')-APH(2'') in Escherichia coli BL21(DE3) assessed as oxidation of NADH by pyruvate kinase
Klebsiella aerogenes = assay: Antibacterial activity against gentamicin-resistant Enterobacter aerogenes clinical isolate assessed as susceptible isolates after 18 hrs by agar dilution method; format: functional
Escherichia coli [24] = assay: Antibacterial activity against Escherichia coli ATCC 25922 at MIC up to 8 hrs by time-kill study; format: functional, organism-based
[25] = tested on: Haemophilus parainfluenzae; assay: Antibacterial activity against non-gentamicin-resistant Haemophilus parainfluenzae clinical isolate assessed as susceptible isolates after 18 hrs by agar dilution method; format: functional, organism-based
Staphylococcus aureus [26] = assay: Bactericidal activity against Staphylococcus aureus ATCC 29213 at >=1 MIC up to 8 hrs by time-kill study; format: functional, organism-based
Serratia marcescens [27] = assay: Antibacterial activity against gentamicin-resistant Serratia marcescens clinical isolate assessed as susceptible isolates after 18 hrs by agar dilution method; format: functional
[28] = tested on: Acinetobacter calcoaceticus; assay: Antibacterial activity against gentamicin-resistant Acinetobacter calcoaceticus clinical isolate assessed as susceptible isolates after 18 hrs by agar dilution method; format: functional
Proteus mirabilis [29] = assay: Antibacterial activity against gentamicin-resistant Proteus mirabilis clinical isolate assessed as susceptible isolates after 18 hrs by agar dilution method; format: functional

Compound: CCN[C@@H]1C[C@H](N)[C@@H](O[C@@H]2OC(C(C)N)=CC[C@@H]2N)[C@H](O)[C@H]1O[C@H]1OC[C@](C)(O)[C@H](NC)[C@H]1O (some centres not stated) [VERTILMICIN]
- Activity (Pseudomonas sp. [1]): 7.7%
- Activity (Morganella morganii): 100%
- MIC50 [2]: 1 µg/mL (≈ 2.04 µM)
- MIC90 [2]: 2 µg/mL (≈ 4.08 µM)
- MIC50 (Haemophilus influenzae): 1 µg/mL (≈ 2.04 µM)
- MIC90 (Haemophilus influenzae): 1 µg/mL (≈ 2.04 µM)
- Vmax/Km [3]: 4.2%
- Activity (Citrobacter freundii [4]): 90%
- Activity [5]: Dose-dependent effect
- Vmax/Km [6]: 19.9%
- Activity (Klebsiella pneumoniae [7]): Dose-dependent effect
- Activity (Citrobacter freundii [8]): 52.6%
- MIC50 (Serratia marcescens [9]): > 128 µg/mL
- MIC90 (Serratia marcescens [9]): > 128 µg/mL
- MIC (Escherichia coli [10]): 0.25 µg/mL (≈ 0.511 µM)
- Activity (Pseudomonas sp. [11]): 72.7%
- MIC (Citrobacter koseri): 0.25 µg/mL (≈ 0.511 µM)
- MIC50 (Citrobacter koseri): 0.25 µg/mL (≈ 0.511 µM)
- MIC90 (Citrobacter koseri): 0.5 µg/mL (≈ 1.02 µM)
- MIC ([12]; isolate 01-55, 18 h): 0.25 µg/mL (≈ 0.511 µM)
- Activity (Enterobacter cloacae): 26.3%
- MIC50 [13]: 2 µg/mL (≈ 4.08 µM)
- MIC90 [13]: 16 µg/mL (≈ 32.7 µM)
- MIC (Klebsiella pneumoniae [14]; isolate 01-21, 18 h): 0.25 µg/mL (≈ 0.511 µM)
- MIC50 (Citrobacter freundii [15]): 8 µg/mL (≈ 16.3 µM)
- MIC90 (Citrobacter freundii [15]): 32 µg/mL (≈ 65.4 µM)
- Vmax [16]: 6.5%
- MIC (Staphylococcus aureus [17]; ATCC 29213, 18 h): 0.125 µg/mL (≈ 0.255 µM)
- Vmax [18]: 49.8%
- MIC (Serratia marcescens [19]): 0.25 µg/mL (≈ 0.511 µM)
- MIC50 (Serratia marcescens [19]): 0.25 µg/mL (≈ 0.511 µM)
- MIC90 (Serratia marcescens [19]): 1 µg/mL (≈ 2.04 µM)
- MIC50 (Escherichia coli [20]): 0.5 µg/mL (≈ 1.02 µM)
- MIC90 (Escherichia coli [20]): 0.5 µg/mL (≈ 1.02 µM)
- Activity (Escherichia coli [21]): 68.4%
- MIC50 (Proteus mirabilis [22]): 32 µg/mL (≈ 65.4 µM)
- MIC90 (Proteus mirabilis [22]): > 128 µg/mL
- Km [23]: 104 µM
- Activity (Klebsiella aerogenes): 30%
- Activity (Escherichia coli [24]): Dose-dependent effect
- Activity [25]: inactive
- Activity (Staphylococcus aureus [26]): Dose-dependent effect
- Activity (Serratia marcescens [27]): 10%
- Activity [28]: 24%
- Activity (Proteus mirabilis [29]): 36.4%

Compound: GENTAMICIN
- Activity (Pseudomonas sp. [1]): 0%
- Activity (Morganella morganii): 76%
- MIC50 [2]: 0.25 µg/mL
- MIC90 [2]: 2 µg/mL
- MIC50 (Haemophilus influenzae): 2 µg/mL
- MIC90 (Haemophilus influenzae): 2 µg/mL
- Activity (Citrobacter freundii [4]): 100%
- Activity [5]: Dose-dependent effect
- Activity (Klebsiella pneumoniae [7]): Dose-dependent effect
- Activity (Citrobacter freundii [8]): 0%
- MIC50 (Serratia marcescens [9]): > 128 µg/mL
- MIC90 (Serratia marcescens [9]): > 128 µg/mL
- Activity (Pseudomonas sp. [11]): 81.8%
- MIC50 (Citrobacter koseri): 0.25 µg/mL
- MIC90 (Citrobacter koseri): 0.5 µg/mL
- MIC [12]: 1 µg/mL
- Activity (Enterobacter cloacae): 0%
- MIC50 [13]: 16 µg/mL
- MIC90 [13]: > 128 µg/mL
- MIC (Klebsiella pneumoniae [14]): 0.25 µg/mL
- MIC50 (Citrobacter freundii [15]): 64 µg/mL
- MIC90 (Citrobacter freundii [15]): 128 µg/mL
- MIC (Staphylococcus aureus [17]): 0.125 µg/mL
- MIC50 (Serratia marcescens [19]): 0.25 µg/mL
- MIC90 (Serratia marcescens [19]): 0.5 µg/mL
- MIC (Escherichia coli [20]): 0.25 µg/mL
- MIC90 (Escherichia coli [20]): 1 µg/mL
- Activity (Escherichia coli [21]): 0%
- MIC50 (Proteus mirabilis [22]): 128 µg/mL
- MIC90 (Proteus mirabilis [22]): > 128 µg/mL
- Activity (Klebsiella aerogenes): 0%
- Activity (Escherichia coli [24]): Dose-dependent effect
- Activity [25]: inactive
- Activity (Staphylococcus aureus [26]): Dose-dependent effect
- Activity (Serratia marcescens [27]): 0%
- Activity [28]: 0%
- Activity (Proteus mirabilis [29]): 0%
